Test results as given in patent US20250230193A1, “CYCLIC COMPOUND HAVING SELECTIVE KRAS INHIBITORY EFFECT ON HRAS AND NRAS” (CHUGAI SEIYAKU KABUSHIKI KAISHA, priority 2022, published 2025).
Where a SMILES comes first, the peptide text is derived from it. Bridges are numbered along the chain shown (N, C = ends). [ ]: non-standard residue; d: D form. The star is where a group is joined. hPhe(3-Cl-4-CF3) = N[C@@H](CCc1ccc(C(F)(F)F)c(Cl)c1)C(=O)O; NPrPhe(4-CF3) = CCCN[C@@H](Cc1ccc(C(F)(F)F)cc1)C(=O)O; NMeGly(cPent) = CN[C@H](C(=O)O)C1CCCC1; NMeD = CN[C@@H](CC(=O)O)C(=O)O; NMeL = CN[C@@H](CC(C)C)C(=O)O; Morpholide = C1CN(*)CCO1; Ac5c = NC1(C(=O)O)CCCC1; Aze = O=C(O)[C@@H]1CCN1; Sar = CNCC(=O)O

How the values were obtained:
[1] = target: GDP-bound HRAS wild-type protein (Homo sapiens, UniProt P01112); experiment: Binding to HRAS by surface plasmon resonance (SPR), Single Cycle Kinetics
Sequence of GDP-bound HRAS wild-type protein (P01112 whole entry): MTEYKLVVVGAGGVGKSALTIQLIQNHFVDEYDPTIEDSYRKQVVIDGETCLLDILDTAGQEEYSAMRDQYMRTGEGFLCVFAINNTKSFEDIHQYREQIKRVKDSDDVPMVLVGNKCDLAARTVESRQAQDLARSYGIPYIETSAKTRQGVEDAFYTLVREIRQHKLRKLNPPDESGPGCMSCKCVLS

[2] = target: GDP-bound NRAS wild-type protein (Homo sapiens, UniProt P01111); experiment: Binding to NRAS by surface plasmon resonance (SPR), Single Cycle Kinetics
Sequence of GDP-bound NRAS wild-type protein (P01111 whole entry): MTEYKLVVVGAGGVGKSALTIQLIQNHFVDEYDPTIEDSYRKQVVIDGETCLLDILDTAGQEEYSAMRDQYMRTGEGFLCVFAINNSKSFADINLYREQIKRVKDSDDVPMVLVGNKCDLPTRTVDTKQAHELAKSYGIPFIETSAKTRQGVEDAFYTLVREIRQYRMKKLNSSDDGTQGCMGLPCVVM

CCO[C@@H]1C[C@H]2C(=O)NC3(CCC3)C(=O)N(C)[C@@H](C3CCCC3)C(=O)N(C)[C@H](C(=O)N(C)CCOC)CC(=O)N(C)[C@@H](CC(C)C)C(=O)N[C@@H]([C@@H](C)CC)C(=O)N(C)CC(=O)N(C)[C@H]3C/C=C\CCN(C3=O)[C@@H](Cc3ccc(C(F)(F)F)cc3)C(=O)N(C)CC(=O)N[C@@H](CCc3ccc(Cl)c(Cl)c3)C(=O)N2C1 [PP1326]
HRAS/KRAS (ratio of KD value for GDP-bound HRAS wild-type protein to KD value for KRAS) ([1]; SPR, KD ratio class): A (a compound having 10 or more and less than 20 is denoted as A)
NRAS/KRAS (ratio of KD value for GDP-bound NRAS wild-type protein to KD value for KRAS) ([2]; SPR, KD ratio class): AA (a compound having 20 or more is denoted as AA)

CCO[C@@H]1C[C@H]2C(=O)NC3(CCC3)C(=O)N(C)[C@@H](C3CCCC3)C(=O)N(C)[C@H](C(=O)N3CCOCC3)CC(=O)N(C)[C@@H](CC3CC3)C(=O)N[C@@H]([C@@H](C)CC)C(=O)N(C)CC(=O)N(C)[C@H]3CCCCN(C3=O)[C@@H](Cc3ccc(C(F)(F)F)cc3)C(=O)N(C)CC(=O)N[C@@H](CCc3cc(F)c(C(F)(F)F)c(F)c3)C(=O)N2C1 [PP0712]
HRAS/KRAS (ratio of KD value with respect to GDP-bound HRAS wild-type protein to KD value with respect to KRAS) ([1]; SPR): C (A compound having a KD ratio of 0.1 or more and less than 3 is denoted as C)
NRAS/KRAS (ratio of KD value with respect to GDP-bound NRAS wild-type protein to KD value with respect to KRAS) ([2]; SPR): C (A compound having a KD ratio of 0.1 or more and less than 3 is denoted as C)

CCCN1C(=O)CN(C)C(=O)[C@@H]2CCN2C(=O)[C@H]([C@@H](C)CC)NC(=O)[C@H](CC(C)C)N(C)C(=O)C[C@@H](C(=O)N2CCOCC2)N(C)C(=O)[C@H](C2CCCC2)N(C)C(=O)C2(CCCC2)NC(=O)CN(C)C(=O)[C@H](CCc2ccc(C(F)(F)F)c(Cl)c2)NC(=O)CN(C)C(=O)[C@@H]1Cc1ccc(C(F)(F)F)cc1 [PP0314] ([NMeL]I[Aze][Sar][NPrPhe(4-CF3)][Sar][hPhe(3-Cl-4-CF3)][Sar][Ac5c][NMeGly(cPent)][NMeD]-Morpholide; lactam N-11)
HRAS/KRAS (ratio of KD for GDP-bound HRAS wild-type to KD for KRAS) ([1]; SPR): C (A compound having a KD ratio of 0.1 or more and less than 3 is denoted as C)
NRAS/KRAS (ratio of KD for GDP-bound NRAS wild-type to KD for KRAS) ([2]; SPR): B (a compound having 3 or more and less than 10 is denoted as B)

CCC[C@H]1C(=O)N[C@@H]([C@@H](C)CC)C(=O)N(C)CC(=O)N(C)[C@H]2C/C=C\CCN(C2=O)[C@@H](Cc2ccc(C)cc2)C(=O)N(C)CC(=O)N[C@@H](CCc2ccc(Cl)c(Cl)c2)C(=O)N2C[C@H](OCC)C[C@H]2C(=O)NC2(CC(C)(C)C2)C(=O)N(C)[C@@H](CC(C)(C)C)C(=O)N(C)[C@H](C(=O)N(C)C)CC(=O)N1C [PP2714]
HRAS/KRAS (ratio of KD value with respect to GDP-bound HRAS wild-type protein to KD value with respect to KRAS) ([1]; class symbols): A (a compound having 10 or more and less than 20 is denoted as A)
NRAS/KRAS (ratio of KD value with respect to GDP-bound NRAS wild-type protein to KD value with respect to KRAS) ([2]; class symbols): A (a compound having 10 or more and less than 20 is denoted as A)

CCC(CC)[C@H]1C(=O)N(C)[C@H](C(=O)N(C)C)CC(=O)N(C)[C@@H](COC)C(=O)N[C@@H]([C@@H](C)CC)C(=O)N2CCC[C@H]2C(=O)N(C)[C@H]2C/C=C\CCN(C2=O)[C@@H](Cc2ccc(C(F)(F)F)cc2)C(=O)N(C)CC(=O)N[C@@H](CCc2ccc(Cl)c(Cl)c2)C(=O)N2C[C@H](OC3CCCC3)C[C@H]2C(=O)NC2(CC(C)(C)C2)C(=O)N1C [PP2651]
HRAS/KRAS (ratio of KD value with respect to GDP-bound HRAS wild-type protein to KD value with respect to KRAS) ([1]; class symbols): A (a compound having 10 or more and less than 20 is denoted as A)
NRAS/KRAS (ratio of KD value with respect to GDP-bound NRAS wild-type protein to KD value with respect to KRAS) ([2]; class symbols): AA (a compound having 20 or more is denoted as AA)

CCOC[C@H]1C(=O)N[C@@H]([C@@H](C)CC)C(=O)N(C)CC(=O)N(C)[C@H]2C/C=C\CCN(C2=O)[C@@H](Cc2ccc(C(F)(F)F)cc2)C(=O)N(C)CC(=O)N[C@@H](CCc2cc(F)c(C(F)(F)F)c(F)c2)C(=O)N2C[C@H](OCC)C[C@H]2C(=O)NC2(CC(C)(C)C2)C(=O)N(C)[C@@H](CC(C)(C)C)C(=O)N(C)[C@H](C(=O)N(C)C)CC(=O)N1C [PP2732]
HRAS/KRAS (ratio of KD value with respect to GDP-bound HRAS wild-type protein to KD value with respect to KRAS) ([1]; class symbols): A (a compound having 10 or more and less than 20 is denoted as A)
NRAS/KRAS (ratio of KD value with respect to GDP-bound NRAS wild-type protein to KD value with respect to KRAS) ([2]; class symbols): A (a compound having 10 or more and less than 20 is denoted as A)

CCCN1C(=O)CN(C)C(=O)CN(C)C(=O)[C@H]([C@@H](C)CC)NC(=O)[C@H](CC(C)C)N(C)C(=O)C[C@@H](C(=O)N2CCOCC2)N(C)C(=O)[C@H](C2CCCC2)N(C)C(=O)C2(CCCC2)NC(=O)CN(C)C(=O)[C@H](CCc2ccc(C(F)(F)F)c(Cl)c2)NC(=O)CN(C)C(=O)[C@@H]1Cc1ccc(C(F)(F)F)cc1 [PP0266] ([NMeL]I[Sar][Sar][NPrPhe(4-CF3)][Sar][hPhe(3-Cl-4-CF3)][Sar][Ac5c][NMeGly(cPent)][NMeD]-Morpholide; lactam N-11)
HRAS/KRAS (ratio of KD for GDP-bound HRAS wild-type to KD for KRAS) ([1]; SPR): C (A compound having a KD ratio of 0.1 or more and less than 3 is denoted as C)
NRAS/KRAS (ratio of KD for GDP-bound NRAS wild-type to KD for KRAS) ([2]; SPR): B (a compound having 3 or more and less than 10 is denoted as B)
